The structures appear in SMILES notation.

GPR84, sequence (Q9NQS5 whole entry): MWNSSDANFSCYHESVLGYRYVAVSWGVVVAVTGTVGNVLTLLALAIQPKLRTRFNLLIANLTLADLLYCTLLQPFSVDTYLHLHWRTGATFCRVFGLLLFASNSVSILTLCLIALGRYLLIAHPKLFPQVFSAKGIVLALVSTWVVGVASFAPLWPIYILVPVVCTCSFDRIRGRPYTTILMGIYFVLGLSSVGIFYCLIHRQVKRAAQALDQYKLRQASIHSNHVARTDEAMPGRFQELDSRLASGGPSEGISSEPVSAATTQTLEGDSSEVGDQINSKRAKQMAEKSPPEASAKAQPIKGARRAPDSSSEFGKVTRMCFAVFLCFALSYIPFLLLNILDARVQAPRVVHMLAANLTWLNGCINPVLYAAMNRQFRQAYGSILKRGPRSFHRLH

In the first assay the target is GPR84 (Homo sapiens (Human), UniProt Q9NQS5). In words: Gai biosensor BRET assay (GPR84-mediated activation of Gai, antagonist mode against agonist ZQ-16). It is filed as cell-based. The following applies: HEK293 cells, 200 nmol/L GPR84 agonist ZQ-16, read-out: hGPR84 IC50. An excerpt:
Background—The following assays can be used for determination of GPR84 activation in living HEK293 cells. […] The Gai biosensor consists of a Rluc8-tagged Gαi2 subunit, a GFP10-tagged Gγ2 subunit, and an untagged Gβ1. […] Moreover, signaling functions of GPCRs are tightly regulated by endocytosis, the targeting of receptors to endosomes and their sorting to lysosomes or recycling to the plasma membrane. […] Agonist stimulation of GPR84—Rluc8 leads to trafficking of the receptor to EEs, and ensuing increase of the donor concentration relative to the rGFP-FYVE acceptor anchored in the same cellular compartment, and thus results in an increase in BRET signal.
Plasmids—The cDNA clones for human GPR84 receptor, human Gαi2, Gβ1, and Gγ2 were obtained from the cDNA Resource Center (www.cdna.org). GFP10 (F64L, S147P, S202F and H231L variant of Aequorea victoria Green Fluorescent Protein) gBlocks gene fragments (Integrated DNA Technologies, IA) and linker were inserted in frame at the N-terminus of human Gγ2. Rluc8 (A55T, C124A, S130A, K136R, A143M, M185V, M253L, and S287L variant of the Renilla renformis luciferase) gBlocks gene fragment was inserted with linkers in frame in between residues 91 and 92 of Gαi2 or at the C-terminus of GPR84. The FYVE domain from human endofin (residues Q739 to K806) attached in frame at the C terminus of a humanized Renilla GFP (rGFP), were synthesized as gBlocks gene fragments.
Bioluminescence Resonance Energy Transfer (BRET) Measurement—HEK293 cells were transfected with GPR84—Rluc8 and rGFP-FYVE for the EEs trafficking biosensor or with GPR84, Gαi2—Rluc8, GFP10-Gγ2, and Gβ1 for the Gai biosensor. The following day, transiently transfected cells were seeded in 96-well white clear bottom microplates coated with poly-D-lysine and left in culture for 24 hours. Cells were washed once with Tyrode's buffer (140 mmol/L NaCl, 1 mmol/L CaCl2, 2.7 mmol/L KCl, 0.49 mmol/L MgCl2, 0.37 mmol/L NaH2PO4, 5.6 mmol/L glucose, 12 mmol/L NaHCO3, and 25 mmol/L HEPES, pH 7.5) before performing assays in Tyrode's buffer. Test compounds were incubated with cells for 5 (Gai) or 15 (EEs) minutes at 37° C. before addition of 200 nmol/L of the GPR84 agonist ZQ-16 (2-(Hexylthio)-6-hydroxy-4(3H)-pyrimidinone) for 5 minutes at room temperature (Gai) or 30 minutes at 37° C. (EEs). The Rluc8 substrate coelenterazine 400A (Prolume, Lakeside, AZ) was added at a final concentration of […] and BRET readings were collected using an Infinite M1000 microplate reader (Tecan, Morrisville, NC). BRET^2 readings between Rluc8 and GFP10 or rGFP were collected by sequential integration of the signals detected in the 370 to 450 nm (Rluc8) and 510 to 540 nm (GFP10, rGFP) windows. The BRET signal was calculated as the ratio of light emitted by acceptor (GFP10, rGFP) over the light emitted by donor (Rluc8). The values were corrected to net BRET by subtracting the background BRET signal obtained in cells transfected with Rluc8 constructs alone. Ligand-promoted net BRET values were calculated by subtracting vehicle-induced net BRET from ligand-induced net BRET.
For orientation: Bioluminescence resonance energy transfer reports proximity on the nanometre scale.
For the compound `CCn1c(-c2ccc(C#CC3CC3)cc2)cc(OCC2COCCO2)cc1=O` (centres unmarked) [Compound I-26], the IC50 is 10 to 15 µM.

For `Cc1cc(OCc2cnccn2)cc(=O)n1[C@H](C)c1ccc(C#CC2CC2)cc1` [Compound I-257], the IC50 is less than 5 µM.

For the compound `COc1cc(OCC2COCCO2)cc(-c2ccc(-c3ccc(C)nc3)cc2C)n1` (centres unmarked) [Compound I-36], the IC50 is less than 5 µM.

The same assay, now with this note: compound tested at 2 μM (concentration code A).
The compound `COc1cc(OCC2COc3ncccc3O2)cc(-c2ccc(-c3ccc(C)nc3)cc2C)n1` (centres unmarked) [Compound I-57] returned an inhibition at 2 µM of 25 to 50%.

Consider `Cc1cc(OCc2cnccn2)cc(=O)n1[C@H](C)c1ccc(C#CC2CC2)cc1` [Compound I-257], for which the inhibition at 2 µM is greater than 75%.

Still in this assay, the particulars now being: compound tested at 10 μM (concentration code D).
`Cc1cc(OCC2COCCO2)cc(=O)n1[C@H](C)c1ccc(N2CC(C)(CO)C2)cc1` (some centres unmarked) [Compound I-224]: the inhibition at 10 µM was less than 25%.

`Cc1cc(OCc2ncccn2)cc(=O)n1[C@@H](C)Cc1ccc(C#CC2CC2)cc1` (stereo in doubt) [Compound I-277] registered an inhibition at 10 µM of less than 25%.

Compound `Cc1cc(OCc2ncccn2)cc(=O)n1[C@H](C)c1ccc(C#CCN(C)Cc2ccccc2)cc1` [Compound I-264] gave an inhibition at 10 µM of 25 to 50%.

`Cc1cc(OCc2ncccn2)cc(=O)n1C(C)c1ccc(OCC(F)(F)F)cc1` (centres unmarked) [Compound I-275] gave an inhibition at 10 µM of less than 25%.

In the case of `Cc1cc(C#CC2CC2)ccc1Cn1c(C)nc(OCC2COCCO2)cc1=O` (centres unmarked) [Compound I-113], the inhibition at 10 µM is less than 25%.

As to `Cc1cc(OCc2ncccn2)cc(=O)n1[C@H](C)Cc1cccc(C#CC2CC2)c1` (stereo in doubt) [Compound I-281], the inhibition at 10 µM is less than 25%.

Take `Cc1cc(OCC2COCCO2)cc(=O)n1Cc1cccc(C#CCNCc2ccccc2)c1` (centres unmarked) [Compound I-97]: the inhibition at 10 µM was less than 25%.

In turn, `Cc1cc(OCC2COCCO2)cc(=O)n1Cc1cccc(OCc2ccccc2)c1` (centres unmarked) [Compound I-82] returned an inhibition at 10 µM of less than 25%.

Consider `Cc1cc(OCc2ncccn2)cc(=O)n1[C@@H](C)c1ccc(C#CC2CC2)cc1` [Compound I-236], for which the inhibition at 10 µM was less than 25%.

`Cc1cc(OCC2Oc3ccccc3O2)cc(=O)n1[C@H](C)c1ccc(C#CC2CC2)cc1` [Compound I-230] displayed an inhibition at 10 µM of less than 25%.

Turning to `Cc1cc(OCc2ncccn2)cc(=O)n1Cc1cccc(OCC(F)(F)F)c1` [Compound I-262], the inhibition at 10 µM was less than 25%.

Take `CC(c1ccc(NC(=O)C2CC2)cc1)n1ccc(OCc2ncccn2)cc1=O` (centres unmarked) [Compound I-255]: the inhibition at 10 µM is less than 25%.

The compound `COc1cnc(COc2cc(C)n([C@H](C)c3ccc(C#CC4CC4)cc3)c(=O)c2)nc1` [Compound I-247] registered an inhibition at 10 µM greater than 75%.

In turn, `Cc1cc(OCc2ncccn2)cc(=O)n1C(C)c1cc(C#CC2CC2)cs1` (centres unmarked) [Compound I-265] came in with an inhibition at 10 µM of less than 25%.

In the case of `Cc1cc(OCC2COc3ncccc3O2)cc(=O)n1C(C)c1ccc(C#CC2CC2)cc1` (centres unmarked) [Compound I-106], the inhibition at 10 µM was greater than 75%.

With `Cc1cc(OC[C@@H]2COCCO2)cc(=O)n1Cc1cc(C#CC2CC2)ccn1` [Compound I-231], the inhibition at 10 µM is less than 25%.

The compound `Cc1cc(OCc2ncccn2)cc(=O)n1Cc1ccc(N2CC(C)(C)C2)cc1` [Compound I-242] came in with an inhibition at 10 µM of less than 25%.

`CC[C@H](c1ccc(C#CC2CC2)cc1)n1c(C)cc(OCc2ncccn2)cc1=O` [Compound I-317] came in with an inhibition at 10 µM greater than 75%.

Take `Cc1cc(OCC2COCCO2)cc(=O)n1C(C)c1ccc(C#CC2CC2)s1` (centres unmarked) [Compound I-220]: the inhibition at 10 µM is less than 25%.

`Cc1cc(OCc2ncccn2)cc(=O)n1Cc1cc(C#CC2CC2)ccc1F` [Compound I-268] showed an inhibition at 10 µM of less than 25%.

The compound `Cc1cc(OCC2COc3ccccc3O2)cc(=O)n1C(C)c1ccc(C#CC2CC2)cc1` (centres unmarked) [Compound I-65] registered an inhibition at 10 µM of less than 25%.

In the case of `Cc1cc(OCc2ncccn2)cc(=O)n1C(C)C1CCN(c2ccc(C3CC3)cc2)CC1` (centres unmarked) [Compound I-368], the inhibition at 10 µM is less than 25%.

The compound `Cc1cc(OCc2ncccn2)cc(=O)n1[C@H](C)c1ccc(C#CC(C)C)cc1` [Compound I-298] showed an inhibition at 10 µM of 50 to 75%.

In turn, `Cc1cc(OCc2ncccn2)cc(=O)n1Cc1cccc(C#CCNc2ccccc2)c1` [Compound I-280] had an inhibition at 10 µM of less than 25%.

`Cc1cc(OCc2ncccn2)cc(=O)n1[C@H](C)c1ccc(-c2cnc(C3CC3)nc2)cc1` [Compound I-347] displayed an inhibition at 10 µM of less than 25%.

Compound `Cc1cc(C#CC2CC2)cnc1C(C)n1ccc(OCc2ncccn2)cc1=O` (centres unmarked) [Compound I-254] yielded an inhibition at 10 µM of less than 25%.

Still in this assay, the particulars now being: compound tested at 12.5 μM (concentration code E).
With `Cc1cc(OCC2COc3ccccc3O2)cc(=O)n1Cc1ccc(C#CC2CC2)cc1` (centres unmarked) [Compound I-73], the inhibition at 12.5 µM was less than 25%.

The assay is the same for the next values; noted with them: compound tested at 15 μM (concentration code F).
`COc1ccc(OCC2COCCO2)cc1Cc1ccc(C#CC2CC2)cc1` (centres unmarked) [Compound I-210] yielded an inhibition at 15 µM of less than 25%.

Staying with this assay, now noted: compound tested at 25 μM (concentration code G).
With `CN(C)C(=O)c1cc(OCC2COCCO2)cc(-c2ccc(OCC(F)(F)F)cc2)c1` (centres unmarked) [Compound I-162], the inhibition at 25 µM was less than 25%.

Compound `FC(F)(F)COc1ccc(-c2cc(OCC3COCCO3)cc(C3COC3)c2)cc1` (centres unmarked) [Compound I-163] gave an inhibition at 25 µM of less than 25%.

As to `FC(F)(F)COc1ccc(-c2cncc(OCC3COCCO3)c2)cc1` (centres unmarked) [Compound I-53], the inhibition at 25 µM was 25 to 50%.

In turn, `Cc1cc(C#CC2CC2)ccc1-c1cncc(OCC2CCCCO2)c1` (centres unmarked) [Compound I-24] had an inhibition at 25 µM of 50 to 75%.

In turn, `CCn1c(-c2ccc(C#CC3CC3)cc2)cc(OCC2COCCO2)cc1=O` (centres unmarked) [Compound I-26] registered an inhibition at 25 µM of 50 to 75%.

Turning to `COc1cnc(OCC2COCCO2)c(-c2ccc(OCC(F)(F)F)cc2)c1OC` (centres unmarked) [Compound I-131], the inhibition at 25 µM was less than 25%.

For `Cn1c(-c2ccc(C#CC3CC3)cc2)cc(OCC2COCCO2)cc1=O` (centres unmarked) [Compound I-67], the inhibition at 25 µM is less than 25%.

In turn, `COc1cc(OCC2COCCO2)cc(-c2ccc(C#CCNc3ccccc3)cc2)n1` (centres unmarked) [Compound I-130] registered an inhibition at 25 µM of less than 25%.

`Cc1cc(C#CC2CC2)ccc1-c1cc(OCC2COCCO2)n(C)c(=O)n1` (centres unmarked) [Compound I-126] returned an inhibition at 25 µM of less than 25%.

As for `COc1nc(OCC2COCCO2)cc(-c2ccc(C#CC3CC3)cc2)n1` (centres unmarked) [Compound I-29], the inhibition at 25 µM was less than 25%.

For the compound `C(#CC1CC1)c1ccc(-c2cc(OCC3CCCCO3)cnn2)cc1` (centres unmarked) [Compound I-135], the inhibition at 25 µM is less than 25%.

For `FC(F)(F)COc1ccc(-c2cc(Cl)cc(OCC3COCCO3)c2)cc1` (centres unmarked) [Compound I-161], the inhibition at 25 µM is less than 25%.

As for `O=c1oc2ccc(-c3ccc(C#CC4CC4)cc3)cc2n1CC1COCCO1` (centres unmarked) [Compound I-169], the inhibition at 25 µM is less than 25%.

`CC(C)c1cc(OCC2COCCO2)cc(OCc2ccc(C#CC3CC3)cc2)n1` (centres unmarked) [Compound I-55] came in with an inhibition at 25 µM of less than 25%.

The compound `CSc1nc(OCC2COCCO2)cc(-c2cnc(OCC(F)(F)F)cc2C)n1` (centres unmarked) [Compound I-9] gave an inhibition at 25 µM of less than 25%.

In the case of `COc1c(C)cc(OCC2COCCO2)nc1-c1ccc(OCC(F)(F)F)cc1` (centres unmarked) [Compound I-78], the inhibition at 25 µM was less than 25%.

For `COc1cc(OCC2COCCO2)cc(-c2ccc(-c3ccc(C)nc3)cc2C)n1` (centres unmarked) [Compound I-36], the inhibition at 25 µM lay within 25 to 50%.

The compound `Cc1cc(C#CC2CC2)ccc1-c1cc(OCC2COCCO2)cc(Cl)n1` (centres unmarked) [Compound I-108] displayed an inhibition at 25 µM of less than 25%.

On to `COc1cc(OCC2CCCOC2)cc(-c2ccc(-c3ccc(C)nc3)cc2C)n1` (centres unmarked) [Compound I-45], for which the inhibition at 25 µM was 25 to 50%.

`Cc1ccc(-c2ccc(-c3nccc(OCC4CCCCO4)n3)cc2)cn1` (centres unmarked) [Compound I-133] showed an inhibition at 25 µM of less than 25%.

Usually IC50 stands for the midpoint of a concentration-inhibition curve. One may read the inhibition as the percentage by which the read-out fell short of the control. Higher therefore signals a strong effect.

The values are drawn from patent US20250340543A1, “GPR84 ANTAGONISTS AND USES THEREOF” (Liminal BioSciences Limited, priority 2021, published 2025).
